The record followed here is ChEMBL document CHEMBL4382195, “Discovery of Novel Topoisomerase II Inhibitors by Medicinal Chemistry Approaches” (J Med Chem, 2018).

In assay [1] the target is DNA topoisomerase 2-alpha (Homo sapiens, UniProt P11388). The assay can be described thus: Inhibition of recombinant human topoisomerase 2alpha using supercoiled pNO1 plasmid as substrate after 30 mins by SYBR-GOLD staining based fluorimetric analysis.
The target of assay [2] is DNA topoisomerase 2-beta (Homo sapiens, UniProt Q02880). Briefly: Poison activity at recombinant human topoisomerase 2beta using pBR322 plasmid as substrate after 30 mins by ethidium bromide staining based agarose gel electrophoresis.
DNA topoisomerase 2-beta, sequence (Q02880 whole entry): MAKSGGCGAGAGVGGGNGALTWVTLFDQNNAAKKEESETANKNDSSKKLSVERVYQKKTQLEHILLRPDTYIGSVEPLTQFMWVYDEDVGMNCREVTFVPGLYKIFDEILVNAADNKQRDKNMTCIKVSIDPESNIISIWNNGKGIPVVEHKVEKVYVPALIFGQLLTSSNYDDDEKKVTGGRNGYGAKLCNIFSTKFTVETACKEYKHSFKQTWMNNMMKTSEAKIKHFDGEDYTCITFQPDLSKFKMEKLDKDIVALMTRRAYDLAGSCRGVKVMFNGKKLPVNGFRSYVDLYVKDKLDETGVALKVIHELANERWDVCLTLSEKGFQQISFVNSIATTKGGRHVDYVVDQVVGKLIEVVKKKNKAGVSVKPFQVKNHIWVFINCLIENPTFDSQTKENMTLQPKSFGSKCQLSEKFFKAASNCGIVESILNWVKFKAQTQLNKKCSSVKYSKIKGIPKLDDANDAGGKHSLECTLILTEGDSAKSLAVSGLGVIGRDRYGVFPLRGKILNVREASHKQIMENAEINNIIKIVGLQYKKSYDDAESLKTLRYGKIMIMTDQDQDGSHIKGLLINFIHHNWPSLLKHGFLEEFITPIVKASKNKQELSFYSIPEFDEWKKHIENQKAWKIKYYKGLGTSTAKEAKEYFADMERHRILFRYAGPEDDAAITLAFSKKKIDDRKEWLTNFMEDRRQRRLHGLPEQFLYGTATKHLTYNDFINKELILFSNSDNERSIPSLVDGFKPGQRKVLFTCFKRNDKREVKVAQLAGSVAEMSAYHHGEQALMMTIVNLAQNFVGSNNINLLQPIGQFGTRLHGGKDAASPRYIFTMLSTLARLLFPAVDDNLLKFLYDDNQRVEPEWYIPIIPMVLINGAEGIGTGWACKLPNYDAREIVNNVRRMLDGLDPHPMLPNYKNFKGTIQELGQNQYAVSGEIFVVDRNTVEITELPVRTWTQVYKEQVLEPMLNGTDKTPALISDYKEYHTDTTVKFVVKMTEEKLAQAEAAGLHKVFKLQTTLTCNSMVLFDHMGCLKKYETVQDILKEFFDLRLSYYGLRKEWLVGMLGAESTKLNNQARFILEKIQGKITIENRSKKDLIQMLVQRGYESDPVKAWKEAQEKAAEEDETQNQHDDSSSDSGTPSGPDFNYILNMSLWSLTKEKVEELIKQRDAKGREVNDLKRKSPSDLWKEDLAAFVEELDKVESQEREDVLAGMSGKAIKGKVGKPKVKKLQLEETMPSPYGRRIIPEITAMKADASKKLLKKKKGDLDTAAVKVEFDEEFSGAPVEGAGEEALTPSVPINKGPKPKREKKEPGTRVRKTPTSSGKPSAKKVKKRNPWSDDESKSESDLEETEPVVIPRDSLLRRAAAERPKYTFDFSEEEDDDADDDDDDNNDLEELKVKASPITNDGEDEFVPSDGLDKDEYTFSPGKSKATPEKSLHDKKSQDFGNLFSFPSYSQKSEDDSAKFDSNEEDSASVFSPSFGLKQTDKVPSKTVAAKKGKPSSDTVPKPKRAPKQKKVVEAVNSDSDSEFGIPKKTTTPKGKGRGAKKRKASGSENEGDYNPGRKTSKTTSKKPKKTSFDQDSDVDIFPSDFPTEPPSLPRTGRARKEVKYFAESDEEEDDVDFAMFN
Assay [3] relates to MDA-MB-231. Briefly: Antiproliferative activity against human MDA-MB-231 cells after 24 hrs by MTT assay. It is filed as functional, cell-based. The note with it: MDA-MB-231, 24 h. (In general: Tetrazolium dyes change colour on reduction, which living cells bring about.)
Assay [4] relates to MCF7. Briefly: Antiproliferative activity against human MCF7 cells after 24 hrs by MTT assay. It is filed as functional, cell-based. As to conditions: MCF7, 24 h.
For assay [5], the system named is Panel NCI-60 (60 carcinoma cell lines). Briefly: Antiproliferative activity against human NCI60 cells after 48 hrs by SRB assay. It is filed as functional. For orientation: The SRB assay estimates cell density from bound dye.

Where only a bound is given, the exact number is not on record here.

DNA topoisomerase 2-alpha, sequence (P11388 whole entry): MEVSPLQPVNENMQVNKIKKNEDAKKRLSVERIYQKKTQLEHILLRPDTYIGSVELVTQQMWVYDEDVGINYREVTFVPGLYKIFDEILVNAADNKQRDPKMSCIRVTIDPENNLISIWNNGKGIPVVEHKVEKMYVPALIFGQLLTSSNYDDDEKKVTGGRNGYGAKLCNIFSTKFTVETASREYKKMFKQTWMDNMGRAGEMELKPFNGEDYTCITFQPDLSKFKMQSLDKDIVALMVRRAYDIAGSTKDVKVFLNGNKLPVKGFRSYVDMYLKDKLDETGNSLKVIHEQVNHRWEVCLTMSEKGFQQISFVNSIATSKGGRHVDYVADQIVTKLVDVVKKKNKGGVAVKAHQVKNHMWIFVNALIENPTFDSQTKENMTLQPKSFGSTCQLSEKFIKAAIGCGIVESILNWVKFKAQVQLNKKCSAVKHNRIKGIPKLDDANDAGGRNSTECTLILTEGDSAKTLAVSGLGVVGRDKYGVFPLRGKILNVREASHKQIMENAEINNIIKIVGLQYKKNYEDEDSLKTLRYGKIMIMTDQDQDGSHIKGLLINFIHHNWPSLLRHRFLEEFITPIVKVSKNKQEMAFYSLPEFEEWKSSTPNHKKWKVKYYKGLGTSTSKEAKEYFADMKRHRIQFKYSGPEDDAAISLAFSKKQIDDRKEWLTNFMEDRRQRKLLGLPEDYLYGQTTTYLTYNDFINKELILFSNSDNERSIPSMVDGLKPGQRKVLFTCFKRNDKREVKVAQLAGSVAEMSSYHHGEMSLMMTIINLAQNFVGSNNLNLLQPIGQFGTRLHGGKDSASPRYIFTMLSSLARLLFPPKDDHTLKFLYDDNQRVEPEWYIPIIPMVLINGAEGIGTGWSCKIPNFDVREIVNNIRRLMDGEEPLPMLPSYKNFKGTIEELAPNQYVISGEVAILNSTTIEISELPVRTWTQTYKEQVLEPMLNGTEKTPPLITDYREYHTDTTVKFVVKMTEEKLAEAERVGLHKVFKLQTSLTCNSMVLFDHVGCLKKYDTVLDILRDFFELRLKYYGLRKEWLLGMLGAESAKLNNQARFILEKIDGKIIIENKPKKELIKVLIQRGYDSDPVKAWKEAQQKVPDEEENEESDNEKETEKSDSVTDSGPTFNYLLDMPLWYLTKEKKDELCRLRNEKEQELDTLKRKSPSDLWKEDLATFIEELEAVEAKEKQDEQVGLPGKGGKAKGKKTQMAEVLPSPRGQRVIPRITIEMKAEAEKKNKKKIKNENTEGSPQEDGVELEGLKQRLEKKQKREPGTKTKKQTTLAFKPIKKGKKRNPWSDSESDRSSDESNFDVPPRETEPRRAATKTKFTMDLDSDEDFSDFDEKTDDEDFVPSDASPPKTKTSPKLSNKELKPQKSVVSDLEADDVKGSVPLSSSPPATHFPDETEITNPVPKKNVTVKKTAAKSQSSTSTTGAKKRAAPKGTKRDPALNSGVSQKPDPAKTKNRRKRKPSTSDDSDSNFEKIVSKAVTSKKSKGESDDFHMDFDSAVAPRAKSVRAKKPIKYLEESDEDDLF

`O=C(O)c1ccc(Nc2ncnc3nc[nH]c23)cc1`: the 50% inhibitory concentration (IC50) – broadly, the concentration that inhibits the measured activity by half – in assay [1] is 44 µM.
For the compound `O=C(O)c1cccc(Nc2ncnc3[nH]cnc23)c1`, in assay [1], the IC50 was 65 µM.
`CN(C)CCCNc1ccc(NCCCN(C)C)c2c1C(=O)c1ccc(C(=O)Nc3ccc(S(C)(=O)=O)cc3)cc1C2=O`: the 50% inhibitory concentration (IC50) in assay [2] was 4.34 to 6.71 µM.
As for `Oc1cccc(-c2nnc(Nc3cccc(F)c3)s2)c1`, the results for the IC50 in assay [3] and in assay [4] were 170 µM and 140 µM, respectively.
For `CN(C)CCNc1ccc(NCCN(C)C)c2c1C(=O)c1ccc(C(=O)Nc3ccc(S(C)(=O)=O)cc3)cc1C2=O`, the IC50 in assay [2] was 5.25 to 9.31 µM.
As to `Fc1ccc(Nc2nnc(-c3ccc(Cl)cc3Cl)s2)cc1`, the IC50 in assay [3] amounted to 130 µM; in assay [4] it was 160 µM.
For the compound `Clc1ccc(OCc2nnc(Nc3ccc(Br)cc3)s2)c(Cl)c1`, the 50% inhibitory concentration (IC50) in assay [3] and in assay [4] was above 200 µM in each case.
In the case of `Fc1cccc(Nc2nnc(-c3cccc(Cl)c3)s2)c1`, the IC50 in assay [3] and in assay [4] was above 200 µM throughout.
Turning to `Clc1ccc(-c2nnc(Nc3ccc(Br)cc3)s2)c(Cl)c1`, the values for the IC50 in assay [3] and in assay [4] were 70 µM and 120 µM, respectively.
For `COc1cc(S(C)(=O)=O)ccc1NC(=O)c1ccc2c(c1)C(=O)c1c(NCCCN(C)C)ccc(NCCCN(C)C)c1C2=O`, the concentration for half-maximal inhibition (IC50) in assay [2] lay within 1.06 to 3.33 µM.
As to `Fc1ccc(Nc2nnc(COc3ccc(Cl)cc3Cl)s2)cc1`, the half-maximal inhibitory concentration (IC50) in assay [3] and in assay [4] was above 200 µM each time.
For `N[C@@H](Cc1ccc(N(CCCl)CCCl)cc1)C(=O)O`, in assay [5], it took 29 µM to inhibit growth by half (GI50).
For `O=C1c2ccccc2C(=O)c2c(NCCNCCO)ccc(NCCNCCO)c21` [AMETANTRONE], the IC50 in assay [2] lay within 0.03 to 0.99 µM.
In the case of `Cn1c(CCCC(=O)O)nc2cc(N(CCCl)CCCl)ccc21` [BENDAMUSTINE], it took 70 µM to inhibit growth in assay [5] by half (GI50).
Consider `O=C(O)CCCc1ccc(N(CCCl)CCCl)cc1` [CHLORAMBUCIL], for which the GI50 (usually the concentration giving 50% growth inhibition) in assay [5] is 60 µM.
In turn, `COc1cc([C@@H]2c3cc4c(cc3[C@@H](O[C@@H]3O[C@@H]5CO[C@@H](C)O[C@H]5[C@H](O)[C@H]3O)[C@H]3COC(=O)[C@H]23)OCO4)cc(OC)c1O` [ETOPOSIDE] had a GI50 in assay [5] of 12 µM.
